Experimental data: patent US20130023494A1, “MODULATORS OF THE GPR119 RECEPTOR AND THE TREATMENT OF DISORDERS RELATED THERETO” (ARENA PHARMACEUTICALS, INC., priority 2010, published 2013)

What was measured:
hGPR119 = biological target: T1, hGPR119 (Homo sapiens, UniProt Q8TDV5); assay: HTRF cAMP assay in CHO-K1 cells stably expressing the GPR119 receptor; assay type: cell-based; conditions: 1 h room temperature
T1 construct: expressed in transfected cells
T1 sequence (Q8TDV5 2-335 limits assumed): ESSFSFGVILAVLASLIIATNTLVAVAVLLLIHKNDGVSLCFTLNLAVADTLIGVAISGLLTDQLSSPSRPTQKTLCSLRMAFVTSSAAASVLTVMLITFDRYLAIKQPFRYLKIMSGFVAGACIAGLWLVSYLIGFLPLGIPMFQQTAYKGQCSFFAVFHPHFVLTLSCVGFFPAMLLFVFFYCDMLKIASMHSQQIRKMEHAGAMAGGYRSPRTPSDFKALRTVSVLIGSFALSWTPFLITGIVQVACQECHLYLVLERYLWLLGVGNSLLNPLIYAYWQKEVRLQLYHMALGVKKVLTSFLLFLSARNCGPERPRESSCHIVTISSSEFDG
Experimental: GPR119 agonists were evaluated in an HTRF® cAMP detection assay according to the manufacturer's instructions (Cisbio, cAMP Dynamic 2 Assay Kit; #62AM4PEJ) using CHO-K1 cells stably expressing the GPR119 receptor. Briefly, CHO-K1 cells were transduced with a lentiviral vector encoding the nucleotide sequence of GPR119 (NCBI mRNA and protein reference sequences: NM_178471.2 & NP_848566, (GPR119 has also been referred to as Glucose-Dependent Insulinotropic Receptor (GDIR)). The N-terminus of the GPR119 nucleotide sequence was modified to replace the first, methionine-coding codon with a nucleotide sequence coding for a standard, nine amino acid, hemagglutinin tag. Following transduction, cells expressing the GPR119 receptor were isolated and a single clone was isolated following standard dilution-cloning procedures. On the day of the assay, cultured CHO-GPR119 cells were harvested, suspended in assay buffer and plated into 384-well assay plates (PerkinElmer Proxiplate #6008280) at a density of 2,000 cells per well. A cAMP standard curve was added to each plate. Test compounds were solubilized in DMSO, serially diluted in DMSO and then diluted in assay buffer before adding to the cells. Test compounds were evaluated in triplicate, using 10-point, 5-fold serial dilutions starting at 10 μM. The final DMSO concentration in the assay was 0.5%. Compounds and cells were incubated for 1 h at room temperature and then detection reagents were added to each well (cAMP-D2 in cell lysis buffer, followed by europium cryptate-labeled anti-cAMP antibody). Plates were then incubated at room temperature for 1 h prior to reading. Time-resolved fluorescence measurements were collected on PerkinElmer Envision™ or BMG Pherastar™ microplate readers. The compound N-(2-fluoro-4-(methylsulfonyl)phenyl)-6-(4-(3-isopropyl-1,2,4-oxadiazol-5-yl)piperidin-1-yl)-5-nitropyrimidin-4-amine was used as a positive control in each runset while assay buffer containing 0.5% DMSO was used as the negative control. The HTRF® assay was used to determine EC50 values for GPR119 agonists.

incretin hormone GIP = assay: Incretin hormone GIP release in male 129SVE mice (Total GIP ELISA); assay type: in vivo, mouse; conditions: 10 mpk p.o., plasma sample after 45 min, PET vehicle 72.5
Experimental: Male 129SVE mice (approximately 8-week old) were fasted for 18 h and randomly grouped (n=6) to receive a GPR119 agonist (Compound 28, Compound 73, Compound 71, Compound 62, and Compound 30) at 10 mpk dose (mg/kg body weight). Compounds were delivered orally via a gavage needle (p.o., volume 4 mL/kg), and after 45 min a blood sample was collected to determine plasma total GIP levels. A separate group received vehicle (PET: 80% PEG:10% Ethanol:10% Tween80™) as control. Plasma GIP levels were determined using a Total GIP ELISA kit from Millipore.

male diabetic ZDF rats = assay: Oral glucose tolerance test (oGTT) in male diabetic ZDF rats; assay type: in vivo, rat; conditions: for % Inhibition of Glucose Excursion (dose: mg/kg): ZDF rats, glucose excursion AUC reduction relative to vehicle; for blood glucose after challenge with glucose: diabetic ZDF rats
Experimental: FIGS. 1 to 4, 16 and 17 show results of three independent experiments with three representative GPR119 agonists of the present invention, namely, Compound 28, Compound 62, and Compound 83. In each experiment, male ZDF rats (approximately 10-week old) were fasted for 18 hours and randomly grouped (n=6) to receive a GPR119 agonist (Compound 28, Compound 62, or Compound 83) at indicated doses (mg/kg body weight). Compounds were delivered orally via a gavage needle (p.o., volume 4 mL/kg) 1 h prior to glucose bolus (3 g/kg) (time=−60 min in FIGS. 1, 3, and 16), with a separate group receiving vehicle (20% hydroxypropyl-beta-cyclodextrin) as control in each experiment. At time 0 min the glucose bolus was administered. Levels of blood glucose were assessed using a glucometer (One-Touch Ultra™, LifeScan) at time −60 min (prior to compound administration), at 0 min (time when glucose bolus was given), and at 30, 60, 90, 120 min post glucose bolus. The plasma glucose excursion curves are given in FIGS. 1, 3, and 16, and glucose excursion AUC (area under the curve) reductions in compound treated animals relative to vehicle control are given in FIGS. 2, 4, and 17, and in Table 1.

male 129SVE mice = assay: Oral glucose tolerance test (oGTT) in male 129SVE mice; assay type: in vivo, mouse; conditions: for % Inhibition of Glucose Excursion: AUC reduction relative to vehicle
Experimental: Male 129SVE mice (approximately 8-week old) were fasted for 18 h and randomly grouped (n=6) to receive a GPR119 agonist (Compound 28) at 1, 3, or 10 mg/kg (mg/kg body weight). The compound was delivered orally via a gavage needle (p.o., volume 4 mL/kg) 30 minutes prior to glucose bolus (3 g/kg) (time=−30 min in FIG. 5), with a separate group receiving vehicle (20% hydroxypropyl-beta-cyclodextrin) as control. At time 0 min the glucose bolus was administered. Levels of blood glucose were assessed using a glucometer (One-Touch Ultra™, LifeScan) at time −30 minute (prior to compound administration), at 0 min (at time when glucose bolus was given), and at 20, 40, 60, 120 minutes post glucose bolus. The plasma glucose excursion curve is given in FIG. 5, and glucose excursion AUC (area under the curve) reduction in compound treated animals relative to vehicle control is given in FIG. 6, and in Table 2.

[1] = 10 mg/kg p.o. 1 h prior to glucose bolus (3 g/kg)
[2] = 30 mg/kg p.o. 1 h prior to glucose bolus (3 g/kg)

Row | SMILES | EC50 (hGPR119) | Total GIP, pg/mL (dose, mg/kg) (incretin hormone GIP) | further results
1 | Cc1nc(S(C)(=O)=O)ccc1O[C@H]1CC[C@H](OC2CCN(C(=O)SC(C)C)CC2)CC1 [Compound 116, S-isopropyl 4-((1r,4r)-4-(2-methyl-6-(methylsulfonyl)pyridin-3-yloxy)cyclohexyloxy)piperidine-1-carbothioate] | 0.005 µM |  | 
2 | CC(C)c1noc(N2CCC(O[C@H]3CC[C@H](Oc4cnc(C(=O)N(C)C)cn4)CC3)CC2)n1 [Compound 98, 5-((1r,4r)-4-(1-(3-isopropyl-1,2,4-oxadiazol-5-yl)piperidin-4-yloxy)cyclohexyloxy)-N,N-dimethylpyrazine-2-carboxamide] | 0.152 µM |  | 
3 | CC(C)(C)OC(=O)N1CCC(O[C@H]2CC[C@H](Oc3ccc(S(C)(=O)=O)cc3F)CC2)CC1 [Compound 5, tert-butyl 4-((1r,4r)-4-(2-fluoro-4-(methylsulfonyl)phenoxy)cyclohexyloxy)piperidine-1-carboxylate] | 0.008 µM |  | 
4 | CC(C)(C)OC(=O)CN1CCC(O[C@H]2CC[C@H](Oc3ccc(S(C)(=O)=O)cc3)CC2)CC1 [Compound 35, tert-butyl 2-(4-((1r,4r)-4-(4-(methylsulfonyl)phenoxy)cyclohexyloxy)piperidin-1-yl)acetate] | 0.426 µM |  | 
5 | CC(C)OC(=O)N1CCC(O[C@H]2CC[C@H](Oc3cnc(-c4ccnnc4)cn3)CC2)CC1 [Compound 77, isopropyl 4-((1r,4r)-4-(5-(pyridazin-4-yl)pyrazin-2-yloxy)cyclohexyloxy)-piperidine-1-carboxylate] | 0.281 µM |  | 
6 | CCC(F)(F)C(=O)N1CCC(O[C@H]2CC[C@H](Oc3ccc(S(C)(=O)=O)cc3)CC2)CC1 [Compound 48, 2,2-difluoro-1-(4-((1r,4r)-4-(4-(methylsulfonyl)phenoxy)cyclohexyloxy)piperidin-1-yl)butan-1-one] | 0.011 µM |  | 
7 | CC(C)OC(=O)N1CCC(O[C@H]2CC[C@H](Oc3ccc(S(C)(=O)=O)cc3F)CC2)CC1 [Compound 13, isopropyl 4-((1r,4r)-4-(2-fluoro-4-(methylsulfonyl)phenoxy)cyclohexyloxy)piperidine-1-carboxylate] | 0.019 µM |  | 
8 | CC(C)(F)c1noc(N2CCC(O[C@H]3CC[C@H](Oc4cnc(S(C)(=O)=O)cn4)CC3)CC2)n1 [Compound 30, 3-(2-fluoropropan-2-yl)-5-(4-((1r,4r)-4-(5-(methylsulfonyl)pyrazin-2-yloxy)cyclohexyloxy)piperidin-1-yl)-1,2,4-oxadiazole] |  | 375.7 pg/mL | 
9 | CCC(F)(F)C(=O)N1CCC(O[C@H]2CC[C@H](Oc3cnc(S(C)(=O)=O)cn3)CC2)CC1 [Compound 73, 2,2-difluoro-1-(4-((1r,4r)-4-(5-(methylsulfonyl)pyrazin-2-yloxy)cyclohexyloxy)piperidin-1-yl)butan-1-one] |  | 195.2 pg/mL | 
10 | C[C@@H](OC(=O)N1CCC(O[C@H]2CC[C@H](Oc3cnc(S(C)(=O)=O)cn3)CC2)CC1)C(F)(F)F [Compound 83, (R)-1,1,1-trifluoropropan-2-yl 4-((1r,4r)-4-(5-(methylsulfonyl)pyrazin-2-yloxy)cyclohexyloxy)piperidine-1-carboxylate] | 0.003 µM |  | % Inhibition of Glucose Excursion (dose: mg/kg) (male diabetic ZDF rats; 1.0 mg/kg p.o. 1 h prior to glucose bolus (3 g/kg)): 14.4% (1.0); % Inhibition of Glucose Excursion (dose: mg/kg) (male diabetic ZDF rats; 3.0 mg/kg p.o. 1 h prior to glucose bolus (3 g/kg)): 44.3% (3.0); % Inhibition of Glucose Excursion (dose: mg/kg) (male diabetic ZDF rats; [1]): 57.9% (10); blood glucose after challenge with glucose (male diabetic ZDF rats): lowered blood glucose
11 | CS(=O)(=O)c1cnc(O[C@H]2CC[C@H](OC3CCN(C(=O)OC(CF)CF)CC3)CC2)cn1 [Compound 71, 1,3-difluoropropan-2-yl 4-((1r,4r)-4-(5-(methylsulfonyl)pyrazin-2-yloxy)cyclohexyloxy)piperidine-1-carboxylate] |  | 379.8 pg/mL | 
12 | CC(C)OC(=O)N1CCC(O[C@H]2CC[C@H](Oc3cnc(S(C)(=O)=O)cn3)CC2)CC1 [Compound 28, isopropyl 4-((1r,4r)-4-(5-(methylsulfonyl)pyrazin-2-yloxy)cyclohexyloxy)piperidine-1-carboxylate] |  | 468.1 pg/mL | blood glucose after challenge with glucose (male 129SVE mice): lowered blood glucose; % Inhibition of Glucose Excursion (male 129SVE mice; 1 mg/kg p.o. 30 minutes prior to glucose bolus (3 g/kg)): 24.9%; % Inhibition of Glucose Excursion (male 129SVE mice; 3 mg/kg p.o. 30 minutes prior to glucose bolus (3 g/kg)): 26.4%; % Inhibition of Glucose Excursion (male 129SVE mice; 10 mg/kg p.o. 30 minutes prior to glucose bolus (3 g/kg)): 35.7%; % Inhibition of Glucose Excursion (dose: mg/kg) (male diabetic ZDF rats; [1]): 54.7% (10); % Inhibition of Glucose Excursion (dose: mg/kg) (male diabetic ZDF rats; [2]): 76.5% (30); blood glucose after challenge with glucose (male diabetic ZDF rats): lowered blood glucose
13 | CC(C)(F)c1nc(N2CCC(O[C@H]3CC[C@H](Oc4cnc(S(C)(=O)=O)cn4)CC3)CC2)no1 [Compound 62, 5-(2-fluoropropan-2-yl)-3-(4-((1r,4r)-4-(5-(methylsulfonyl)pyrazin-2-yloxy)cyclohexyloxy)piperidin-1-yl)-1,2,4-oxadiazole] |  | 368.5 pg/mL | % Inhibition of Glucose Excursion (dose: mg/kg) (male diabetic ZDF rats; 3.3 mg/kg p.o. 1 h prior to glucose bolus (3 g/kg)): 25.7% (3.3); % Inhibition of Glucose Excursion (dose: mg/kg) (male diabetic ZDF rats; [1]): 32.7% (10); % Inhibition of Glucose Excursion (dose: mg/kg) (male diabetic ZDF rats; [2]): 48.0% (30); blood glucose after challenge with glucose (male diabetic ZDF rats): lowered blood glucose
14 | C=C(C)c1noc(N2CCC(O[C@H]3CC[C@H](Oc4cnc(S(C)(=O)=O)cn4)CC3)CC2)n1 [Compound 69, 5-(4-((1r,4r)-4-(5-(methylsulfonyl)pyrazin-2-yloxy)cyclohexyloxy)piperidin-1-yl)-3-(prop-1-en-2-yl)-1,2,4-oxadiazole] | 0.031 µM |  | 
15 | CC(C)(C)OC(=O)N1CCC(O[C@H]2CC[C@@H](Oc3ccc(S(C)(=O)=O)cc3)CC2)CC1 [Compound 1, tert-butyl 4-((1s,4s)-4-(4-(methylsulfonyl)phenoxy)cyclohexyloxy)piperidine-1-carboxylate] | 0.266 µM |  | 
